pKi: −log10 of the molar value.
The molecules below were run against T1, histamine-3 receptors (H3 receptor) (Rattus norvegicus, UniProt Q9QYN8) (assay: (3H)-N-α-methylhistamine binding to rat cortical membranes (histamine-3 receptor ligands)). Conditions: male Sprague-Dawley rat brain cortical membranes; (3H)-N-α-methylhistamine ~0.6 nM; 30 minutes at 25° C.; Cheng-Prusoff.
T1 construct: from tissue; host or cells: male Sprague-Dawley rat brain cortex membranes
Experimental: Briefly, male Sprague-Dawley rat brain cortices were homogenized (1 g tissue/10 mL buffer) in 50 mM Tris-HCl/5 mM EDTA containing protease inhibitor cocktail (Calbiochem) using a polytron set at 20,500 rpm. Homogenates were centrifuged for 20 minutes at 40,000×g. The supernatant was decanted, and pellets were weighed. The pellet was resuspended by polytron homogenization in 40 mL 50 mM Tris-HCl/5 mM EDTA with protease inhibitors and centrifuged for 20 minutes at 40,000×g. […] Rat cortical membranes (12 mg wet weight/tube) were incubated with (^3H)-N-α-methylhistamine (˜0.6 nM) with or without H3 receptor antagonists in a total incubation volume of 0.5 mL of 50 mM Tris-HCl/5 mM EDTA (pH 7.7). Test compounds were dissolved in DSMO to provide a 20 mM solution, serially diluted and then added to the incubation mixture prior to initiating the incubation assay by addition of the membranes. Thioperamide (3 μM) was used to determine nonspecific binding. Binding incubations were conducted for 30 minutes at 25° C. and terminated by addition of 2 mL of ice cold 50 mM Tris-HCl (pH 7.7) and filtration through 0.3% polyethylenimine-soaked Unifilter plates (Packard). These filters were washed 4 additional times with 2 mL of ice-cold 50 mM Tris-HCl and dried for 1 hour. Radioactivity was determined using liquid scintillation counting techniques. Results were analyzed by Hill transformation and Ki values were determined using the Cheng-Prusoff equation.

T1 sequence (Q9QYN8 whole entry): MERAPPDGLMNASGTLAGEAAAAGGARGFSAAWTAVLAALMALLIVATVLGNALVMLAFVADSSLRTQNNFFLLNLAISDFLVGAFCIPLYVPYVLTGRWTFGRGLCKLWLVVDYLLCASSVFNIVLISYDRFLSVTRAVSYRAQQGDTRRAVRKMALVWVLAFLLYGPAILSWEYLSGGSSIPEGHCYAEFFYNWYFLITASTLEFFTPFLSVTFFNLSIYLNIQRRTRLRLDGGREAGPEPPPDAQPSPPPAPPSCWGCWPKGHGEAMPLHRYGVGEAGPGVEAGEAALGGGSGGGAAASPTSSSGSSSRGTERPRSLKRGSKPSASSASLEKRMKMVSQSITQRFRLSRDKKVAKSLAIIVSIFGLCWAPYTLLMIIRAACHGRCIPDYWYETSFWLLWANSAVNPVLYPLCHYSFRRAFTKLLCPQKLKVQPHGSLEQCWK

Row | Molecule | pKi
1 | 3-{[3-(2-{2-[(2R)-2-methylpyrrolidin-1-yl]ethyl}-1-benzofuran-5-yl)-1,2,4-oxadiazol-5-yl]methyl}benzonitrile [Example 93] | 8.22
2 | 4-(2-{2-[-2,6-dimethylpiperidinyl]ethyl}-1-benzofuran-5-yl)benzonitrile [Example 11] | 7.71
3 | 4-(6-methyl-2-{2-[(2R)-2-methyl-1-pyrrolidinyl]ethyl}-1-benzofuran-5-yl)benzonitrile and 4-(4-methyl-2-{2-[(2R)-2-methyl-1-pyrrolidinyl]ethyl}-1-benzofuran-5-yl)benzonitrile [Example 108] | 8.10
4 | 4-[4-(2-{2-[-2,6-dimethylpiperidinyl]ethyl}-1-benzofuran-5-yl)benzoyl]morpholine [Example 29] | 8.07
5 | N#Cc1ccc(-c2ccc3oc(CCN4CCCC4)cc3c2)cc1 [Example 2, 4-{2-[2-(1-pyrrolidinyl)ethyl]-1-benzofuran-5-yl}benzonitrile] | 7.33
6 | N#Cc1ccc(-c2ccc3oc(CCN4CCCCC4)cc3c2)cc1 [Example 4, 4-{2-[2-(1-piperidinyl)ethyl]-1-benzofuran-5-yl}benzonitrile] | 7.23
7 | CC1CCCCN1CCc1cc2cc(-c3ccc(C#N)cc3)ccc2o1 (stereo not drawn) [Example 6, 4-{2-[2-(2-methyl-1-piperidinyl)ethyl]-1-benzofuran-5-yl}benzonitrile] | 7.35
8 | COC(=O)[C@@H]1CCCN1CCc1cc2cc(-c3ccc(C#N)cc3)ccc2o1 [Example 15, 4-(2-{2-[2-pyrrolidinemethyl carboxylate]ethyl}-1-benzofuran-5-yl)benzonitrile] | ≤ 6.00
9 | O=C(c1ccc(-c2ccc3oc(CCN4CCC[C@H]4CO)cc3c2)cc1)N1CCOCC1 [Example 34] | 8.16
10 | C[C@@H]1CCC[C@H](C)N1CCc1cc2cc(-c3ccc(C(=O)N4CCOCC4)cn3)ccc2o1 [Example 50, 4-{[6-(2-{2-[-2,6-dimethylpiperidinyl]ethyl}-1-benzofuran-5-yl)-3-pyridinyl]carbonyl}morpholine] | 7.43
11 | O=C(c1ccc(-c2ccc3oc(CCN4CCC5(CC4)OCCO5)cc3c2)nc1)N1CCOCC1 [Example 60, 8-(2-{5-[5-(4-morpholinylcarbonyl)-2-pyridinyl]-1-benzofuran-2-yl}ethyl)-1,4-dioxa-8-azaspiro[4.5]decane] | ≤ 6.00
12 | C=CCNCCc1cc2cc(-c3ccc(C(=O)N4CCOCC4)cn3)ccc2o1 [Example 63, N-allyl-N-(2-{5-[5-(4-morpholinylcarbonyl)-2-pyridinyl]-1-benzofuran-2-yl}ethyl)amine] | ≤ 6.00
13 | O=C(c1ccc(-c2ccc3oc(CCNCCCO)cc3c2)nc1)N1CCOCC1 [Example 64, 3-[(2-{5-[5-(4-morpholinylcarbonyl)-2-pyridinyl]-1-benzofuran-2-yl}ethyl)amino]-1-propanol] | ≤ 6.00
14 | C[C@@H]1CCCN1CCc1cc2c(-c3ccc(C#N)cc3)cccc2o1 [Example 85, 4-(2-{2-[(2R)-2-methyl-1-pyrrolidinyl]ethyl}-1-benzofuran-4-yl)benzonitrile] | 7.38
15 | C[C@@H]1CCCN1CCc1cc2ccc(-c3ccc(C#N)cc3)cc2o1 [Example 86, 4-(2-{2-[(2R)-2-methyl-1-pyrrolidinyl]ethyl}-1-benzofuran-6-yl)benzonitrile] | 8.46
16 | C[C@@H]1CCCN1CCc1cc2cc(-c3noc(Cc4cccs4)n3)ccc2o1 [Example 87, 3-(2-{2-[(2R)-2-methylpyrrolidin-1-yl]ethyl}-1-benzofuran-5-yl)-5-(thien-2-ylmethyl)-1,2,4-oxadiazole] | 7.80
17 | C[C@@H]1CCCN1CCc1cc2cc(-c3noc(-c4ccc(C#N)cc4)n3)ccc2o1 [Example 88, 4-[3-(2-{2-[(2R)-2-methylpyrrolidin-1-yl]ethyl}-1-benzofuran-5-yl)-1,2,4-oxadiazol-5-yl]benzonitrile] | 7.19
18 | C[C@@H]1CCCN1CCc1cc2cc(-c3noc(-c4ccc(Cl)cc4)n3)ccc2o1 [Example 89, 5-(4-chlorophenyl)-3-(2-{2-[(2R)-2-methylpyrrolidin-1-yl]ethyl}-1-benzofuran-5-yl)-1,2,4-oxadiazole] | 7.92
